{"source": "patent US12121523B2", "about": "“Method of treatment of attention deficit/hyperactivity disorder (ADHD)” (Supernus Pharmaceuticals, Inc., priority 2008, dated 2024)", "key": {"[1]": {"target": "noradrenergic reuptake transporters (Homo sapiens, UniProt P23975)", "sequence (P23975 whole entry)": "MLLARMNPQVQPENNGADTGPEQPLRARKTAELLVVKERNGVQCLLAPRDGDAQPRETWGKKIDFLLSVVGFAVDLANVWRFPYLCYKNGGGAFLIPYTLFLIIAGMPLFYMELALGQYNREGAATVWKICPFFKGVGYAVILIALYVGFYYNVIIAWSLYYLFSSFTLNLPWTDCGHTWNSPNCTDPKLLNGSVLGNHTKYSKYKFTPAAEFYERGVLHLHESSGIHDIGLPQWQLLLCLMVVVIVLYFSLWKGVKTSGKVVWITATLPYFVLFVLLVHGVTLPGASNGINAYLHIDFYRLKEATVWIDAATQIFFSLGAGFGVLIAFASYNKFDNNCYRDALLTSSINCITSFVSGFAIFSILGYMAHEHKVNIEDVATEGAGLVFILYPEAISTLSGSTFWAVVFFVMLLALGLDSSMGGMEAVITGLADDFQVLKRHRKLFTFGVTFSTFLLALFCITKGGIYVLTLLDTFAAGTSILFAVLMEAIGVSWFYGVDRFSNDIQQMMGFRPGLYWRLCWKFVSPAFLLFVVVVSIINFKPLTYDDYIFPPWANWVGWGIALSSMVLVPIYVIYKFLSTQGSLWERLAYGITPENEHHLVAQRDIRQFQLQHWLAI", "settings": "Tatsumi et al 1997; quantity type not given; cited from earlier work"}, "[2]": {"target": "5-HT3 (h) (Homo sapiens, UniProt P46098)", "sequence (P46098 24-478)": "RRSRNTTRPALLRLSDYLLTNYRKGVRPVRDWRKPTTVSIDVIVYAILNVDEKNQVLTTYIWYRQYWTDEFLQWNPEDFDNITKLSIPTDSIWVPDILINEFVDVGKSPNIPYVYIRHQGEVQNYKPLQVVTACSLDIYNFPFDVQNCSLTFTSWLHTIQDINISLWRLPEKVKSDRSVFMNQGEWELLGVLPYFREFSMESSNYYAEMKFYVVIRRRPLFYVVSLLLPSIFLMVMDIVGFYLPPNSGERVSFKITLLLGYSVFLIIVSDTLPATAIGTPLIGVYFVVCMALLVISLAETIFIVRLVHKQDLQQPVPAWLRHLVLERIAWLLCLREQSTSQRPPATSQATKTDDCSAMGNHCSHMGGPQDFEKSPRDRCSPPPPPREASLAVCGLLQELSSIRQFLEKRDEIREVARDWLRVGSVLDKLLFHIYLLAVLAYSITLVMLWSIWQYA", "settings": "10 μM viloxazine; [3H]BRL 43694 0.5 nM; 120 min/22° C.", "source_text": "(§1) Briefly, recombinant 5-HT1B OR 5-HT7 receptors were expressed in a CHO cell line. The receptors were then saturated with a tritiated receptor-specific ligand at concentrations known to be saturating."}, "[3]": {"target": "5-HT6 (h) (Homo sapiens, UniProt P50406)", "sequence (P50406 whole entry)": "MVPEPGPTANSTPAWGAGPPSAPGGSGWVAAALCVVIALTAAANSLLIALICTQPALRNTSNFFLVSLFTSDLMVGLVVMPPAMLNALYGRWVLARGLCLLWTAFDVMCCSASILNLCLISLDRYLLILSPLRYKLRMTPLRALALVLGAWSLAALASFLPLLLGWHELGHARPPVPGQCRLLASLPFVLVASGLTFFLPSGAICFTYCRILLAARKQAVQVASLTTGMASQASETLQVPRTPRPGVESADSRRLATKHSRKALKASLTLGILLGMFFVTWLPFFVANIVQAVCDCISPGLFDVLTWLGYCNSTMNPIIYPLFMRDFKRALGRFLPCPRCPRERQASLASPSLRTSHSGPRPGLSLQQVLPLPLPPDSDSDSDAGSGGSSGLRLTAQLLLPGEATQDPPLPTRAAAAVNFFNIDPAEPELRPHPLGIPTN", "settings": "10 μM viloxazine; [3H]LSD 2 nM; 120 min/37° C.", "source_text": "as §1"}, "[4]": {"target": "5-HT1D (Rattus norvegicus, UniProt P28565)", "sequence (P28565 whole entry)": "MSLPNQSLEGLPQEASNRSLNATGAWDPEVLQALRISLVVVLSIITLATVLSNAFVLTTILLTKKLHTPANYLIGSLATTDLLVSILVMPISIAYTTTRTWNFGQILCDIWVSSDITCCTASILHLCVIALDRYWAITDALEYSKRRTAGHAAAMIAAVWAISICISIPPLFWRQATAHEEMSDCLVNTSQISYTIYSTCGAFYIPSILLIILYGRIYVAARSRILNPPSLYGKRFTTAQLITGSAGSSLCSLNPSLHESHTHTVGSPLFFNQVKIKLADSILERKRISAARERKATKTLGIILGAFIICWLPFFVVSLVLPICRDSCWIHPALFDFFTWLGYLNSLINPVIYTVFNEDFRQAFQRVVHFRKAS", "settings": "10 μM viloxazine; [3H]serotonin 1 nM; 60 min/22° C.", "source_text": "as §1"}, "[5]": {"target": "5-HT4e (h) (Homo sapiens, UniProt Q13639)", "sequence (Q13639 1-378 isoform Q13639-5)": "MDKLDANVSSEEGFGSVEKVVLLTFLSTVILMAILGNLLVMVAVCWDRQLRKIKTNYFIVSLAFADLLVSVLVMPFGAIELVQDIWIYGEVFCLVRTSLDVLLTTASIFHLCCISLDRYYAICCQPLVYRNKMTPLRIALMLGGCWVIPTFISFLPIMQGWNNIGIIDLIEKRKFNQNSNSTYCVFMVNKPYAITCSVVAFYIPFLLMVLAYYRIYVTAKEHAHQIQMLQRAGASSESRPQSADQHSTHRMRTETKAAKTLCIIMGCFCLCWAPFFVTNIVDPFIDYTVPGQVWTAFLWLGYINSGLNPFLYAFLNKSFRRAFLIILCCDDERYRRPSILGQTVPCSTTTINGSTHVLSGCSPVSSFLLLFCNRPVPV", "settings": "10 μM viloxazine; [3H]GR 113808 0.3 nM; 60 min/37° C.", "source_text": "as §1"}, "[6]": {"target": "5-HT5A (h) (Homo sapiens, UniProt P47898)", "sequence (P47898 whole entry)": "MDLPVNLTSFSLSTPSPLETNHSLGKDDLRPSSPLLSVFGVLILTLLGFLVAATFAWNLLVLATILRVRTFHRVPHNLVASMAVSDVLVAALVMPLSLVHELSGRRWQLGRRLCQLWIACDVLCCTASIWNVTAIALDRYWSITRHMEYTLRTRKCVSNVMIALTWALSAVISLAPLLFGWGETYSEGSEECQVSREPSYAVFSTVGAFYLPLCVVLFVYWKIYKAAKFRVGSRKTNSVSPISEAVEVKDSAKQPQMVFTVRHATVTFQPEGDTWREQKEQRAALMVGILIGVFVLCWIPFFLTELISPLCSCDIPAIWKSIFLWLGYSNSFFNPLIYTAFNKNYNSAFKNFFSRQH", "settings": "10 μM viloxazine; [3H]LSD 1 nM; 60 min/37° C.", "source_text": "as §1"}, "[7]": {"target": "5-HT1B (h) (Homo sapiens, UniProt P28222)", "sequence (P28222 whole entry)": "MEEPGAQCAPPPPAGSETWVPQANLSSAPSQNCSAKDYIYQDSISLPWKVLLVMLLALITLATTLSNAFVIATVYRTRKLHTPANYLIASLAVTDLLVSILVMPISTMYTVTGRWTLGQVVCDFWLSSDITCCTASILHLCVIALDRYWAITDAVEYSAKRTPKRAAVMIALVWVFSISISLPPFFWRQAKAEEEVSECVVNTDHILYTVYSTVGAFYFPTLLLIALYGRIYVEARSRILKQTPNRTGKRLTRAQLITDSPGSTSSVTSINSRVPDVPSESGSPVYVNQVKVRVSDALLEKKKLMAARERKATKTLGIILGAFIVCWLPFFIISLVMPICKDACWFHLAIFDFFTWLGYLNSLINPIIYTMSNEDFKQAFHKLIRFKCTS", "protocol": "The apparent dissociation constants for antagonists Kb were calculated using the modified Cheng Prusoff equation."}}}
{"substance": "Viloxazine", "values": [{"measurement": "inhibition of noradrenergic reuptake transporters", "setting": "[1]", "value": 155, "unit": "nM"}, {"measurement": "% Inhib.", "setting": "[2]", "value": 18, "unit": "%"}, {"measurement": "% Inhib.", "setting": "[3]", "value": 6, "unit": "%"}, {"measurement": "% Inhib.", "setting": "[4]", "value": 18, "unit": "%"}, {"measurement": "% Inhib.", "setting": "[5]", "value": 16, "unit": "%"}, {"measurement": "% Inhib.", "setting": "[6]", "value": 15, "unit": "%"}, {"measurement": "antagonist activity (in words)", "setting": "[7]", "value": "specific antagonist activity"}]}
